Key:
A-375 = assay: Antiproliferative activity aganist human A375 cells incubated for 72 hrs by MTT assay; format: functional, cell-based; details: A-375, 72 h
MCF7 [1] = assay: Antiproliferative activity aganist human MCF7 cells incubated for 72 hrs by MTT assay; format: functional, cell-based; details: MCF7, 72 h
A549 [2] = assay: Antiproliferative activity aganist human A549 cells incubated for 72 hrs by MTT assay; format: functional, cell-based; details: A549, 72 h
[3] = molecular target: Vascular endothelial growth factor receptor 2 (Homo sapiens, UniProt P35968); assay: Inhibition of recombinant human N-terminal GST-tagged KDR (789 to end residues) expressed in baculovirus infected Sf9 insect cells using Poly (4:1 Glu, Tyr) peptide as substrate incubated for 1 hr by ADP-Glo assay
[4] = molecular target: Insulin-like growth factor 1 receptor (Homo sapiens, UniProt P08069); assay: Inhibition of recombinant human N-terminal His-tagged IGF1R (960 to end residues) expressed in baculovirus infected Sf9 insect cells using IGF1Rtide as substrate incubated for 1 hr by ADP-Glo assay
[5] = Selectivity index, ratio of IC50 for human PBMC cells to IC50 for human Jurkat cells; format: toxicity; details: PBMC cells and Jurkat cells, read-out: Ratio IC50
Insulin receptor = Insulin receptor (Homo sapiens, UniProt P06213); assay: Inhibition of recombinant human N-terminal GST-tagged INSR (1011 to end residues) expressed in baculovirus infected Sf9 insect cells using Axltide as substrate incubated for 1 hr by ADP-Glo assay
[6] = molecular target: Platelet-derived growth factor receptor beta (Homo sapiens, UniProt P09619); assay: Inhibition of recombinant human N-terminal GST-tagged PDGFRbeta (557 to end residues) expressed in baculovirus infected Sf9 insect cells using Poly (4:1 Glu, Tyr) peptide as substrate incubated for 1 hr by ADP-Glo assay
[7] = molecular target: Receptor tyrosine-protein kinase erbB-4 (Homo sapiens, UniProt Q15303); assay: Inhibition of recombinant human N-terminal GST-tagged HER4 (682 to 993 residues) expressed in baculovirus infected Sf9 insect cells using Poly (4:1 Glu, Tyr) peptide as substrate incubated for 1 hr by ADP-Glo assay
[8] = molecular target: Receptor tyrosine-protein kinase erbB-2 (Homo sapiens, UniProt P04626); assay: Inhibition of recombinant human N-terminal GST-tagged HER2 (676 to end residues) expressed in baculovirus infected Sf9 insect cells using Poly (4:1 Glu, Tyr) peptide as substrate incubated for 1 hr by ADP-Glo assay
A549 [9] = assay: Induction of apoptosis in human A549 cells assessed as increase in apoptosis/necrosis cells at IC50 incubated for 24 hrs by Annexin V-FITC/ethidium homodimer 3 staining based fluorescence microscopic method relative to control; format: functional
A549 [10] = assay: Induction of apoptosis in human A549 cells assessed as increase in necrosis cells at IC50 incubated for 24 hrs by Annexin V-FITC/ethidium homodimer 3 staining based fluorescence microscopic method relative to control; format: functional
MCF7 [11] = assay: Induction of apoptosis in human MCF7 cells assessed as increase in apoptosis/necrosis cells at IC50 incubated for 24 hrs by Annexin V-FITC/ethidium homodimer 3 staining based fluorescence microscopic method relative to control; format: functional
PBMC = assay: Cytotoxicity against human PBMC cells assessed as reduction in cell viability incubated for 72 hrs by MTT assay; format: cell-based
MCF7 [12] = assay: Induction of apoptosis in human MCF7 cells assessed as increase in necrosis cells at IC50 incubated for 24 hrs by Annexin V-FITC/ethidium homodimer 3 staining based fluorescence microscopic method relative to control; format: functional
A549 [13] = assay: Induction of apoptosis in human A549 cells at IC50 incubated for 24 hrs by Annexin V-FITC/ethidium homodimer 3 staining based fluorescence microscopic method relative to control; format: functional
Jurkat = assay: Antiproliferative activity aganist human Jurkat cells incubated for 72 hrs by MTT assay; format: functional, cell-based
[14] = molecular target: Platelet-derived growth factor receptor alpha (Homo sapiens, UniProt P16234); assay: Inhibition of recombinant human N-terminal GST-tagged PDGFRalpha (550 to end residues) expressed in baculovirus infected Sf9 insect cells using Poly (4:1 Glu, Tyr) peptide as substrate incubated for 1 hr by ADP-Glo assay
MCF7 [15] = assay: Induction of apoptosis in human MCF7 cells at IC50 incubated for 24 hrs by Annexin V-FITC/ethidium homodimer 3 staining based fluorescence microscopic method relative to control; format: functional
[16] = molecular target: Epidermal growth factor receptor (Homo sapiens, UniProt P00533); assay: Inhibition of recombinant human N-terminal GST-tagged EGFR (695 to end residues) expressed in baculovirus infected Sf9 insect cells using Poly (4:1 Glu, Tyr) peptide as substrate incubated for 1 hr by ADP-Glo assay

Chain of Platelet-derived growth factor receptor beta (P09619 whole entry, the tested form may be a part): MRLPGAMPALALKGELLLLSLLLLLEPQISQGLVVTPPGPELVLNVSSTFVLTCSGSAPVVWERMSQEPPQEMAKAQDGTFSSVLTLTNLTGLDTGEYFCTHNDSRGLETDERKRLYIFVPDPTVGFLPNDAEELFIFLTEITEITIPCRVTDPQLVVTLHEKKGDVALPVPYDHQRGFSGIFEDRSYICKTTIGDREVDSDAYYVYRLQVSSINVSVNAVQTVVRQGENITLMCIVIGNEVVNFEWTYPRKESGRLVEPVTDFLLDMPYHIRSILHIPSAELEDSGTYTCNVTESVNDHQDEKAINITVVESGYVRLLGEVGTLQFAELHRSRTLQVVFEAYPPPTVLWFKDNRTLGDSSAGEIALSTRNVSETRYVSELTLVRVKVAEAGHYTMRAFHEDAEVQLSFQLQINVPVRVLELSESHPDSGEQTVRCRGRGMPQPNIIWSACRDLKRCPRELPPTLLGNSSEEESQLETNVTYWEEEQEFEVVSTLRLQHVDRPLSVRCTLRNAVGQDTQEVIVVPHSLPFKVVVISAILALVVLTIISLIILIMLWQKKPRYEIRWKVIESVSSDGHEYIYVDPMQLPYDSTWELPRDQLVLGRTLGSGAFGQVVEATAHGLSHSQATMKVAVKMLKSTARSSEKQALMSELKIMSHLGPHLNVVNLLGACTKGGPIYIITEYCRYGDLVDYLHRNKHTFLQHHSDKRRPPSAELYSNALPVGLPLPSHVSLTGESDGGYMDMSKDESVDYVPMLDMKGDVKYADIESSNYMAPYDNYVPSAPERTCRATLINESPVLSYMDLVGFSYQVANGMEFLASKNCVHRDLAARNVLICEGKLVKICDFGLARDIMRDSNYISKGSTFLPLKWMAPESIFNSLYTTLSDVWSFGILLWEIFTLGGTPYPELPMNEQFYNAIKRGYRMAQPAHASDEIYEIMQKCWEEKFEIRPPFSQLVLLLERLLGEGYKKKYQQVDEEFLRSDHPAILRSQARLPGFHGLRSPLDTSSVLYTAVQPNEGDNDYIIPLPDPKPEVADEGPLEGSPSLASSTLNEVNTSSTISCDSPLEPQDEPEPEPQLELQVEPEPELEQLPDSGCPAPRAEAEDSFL
Chain of Insulin receptor (P06213 28-758 limits assumed): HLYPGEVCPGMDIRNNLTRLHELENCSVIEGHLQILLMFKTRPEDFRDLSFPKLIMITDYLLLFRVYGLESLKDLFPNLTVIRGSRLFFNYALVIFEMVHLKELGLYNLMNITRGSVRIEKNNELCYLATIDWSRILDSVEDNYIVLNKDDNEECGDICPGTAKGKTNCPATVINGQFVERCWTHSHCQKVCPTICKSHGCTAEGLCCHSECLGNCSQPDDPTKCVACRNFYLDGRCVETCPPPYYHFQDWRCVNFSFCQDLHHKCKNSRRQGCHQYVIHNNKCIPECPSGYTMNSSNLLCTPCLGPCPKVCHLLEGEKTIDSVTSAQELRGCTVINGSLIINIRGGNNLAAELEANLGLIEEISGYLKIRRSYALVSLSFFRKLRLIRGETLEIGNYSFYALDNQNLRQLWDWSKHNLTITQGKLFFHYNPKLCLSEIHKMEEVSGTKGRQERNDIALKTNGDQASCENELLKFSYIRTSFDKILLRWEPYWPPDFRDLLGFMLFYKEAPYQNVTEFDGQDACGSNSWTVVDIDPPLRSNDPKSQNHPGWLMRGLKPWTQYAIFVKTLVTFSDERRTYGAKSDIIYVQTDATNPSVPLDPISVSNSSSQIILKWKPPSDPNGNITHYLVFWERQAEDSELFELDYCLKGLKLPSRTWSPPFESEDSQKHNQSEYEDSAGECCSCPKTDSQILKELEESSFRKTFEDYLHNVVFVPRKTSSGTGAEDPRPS
Chain of Insulin receptor (P06213 763-1382 limits assumed): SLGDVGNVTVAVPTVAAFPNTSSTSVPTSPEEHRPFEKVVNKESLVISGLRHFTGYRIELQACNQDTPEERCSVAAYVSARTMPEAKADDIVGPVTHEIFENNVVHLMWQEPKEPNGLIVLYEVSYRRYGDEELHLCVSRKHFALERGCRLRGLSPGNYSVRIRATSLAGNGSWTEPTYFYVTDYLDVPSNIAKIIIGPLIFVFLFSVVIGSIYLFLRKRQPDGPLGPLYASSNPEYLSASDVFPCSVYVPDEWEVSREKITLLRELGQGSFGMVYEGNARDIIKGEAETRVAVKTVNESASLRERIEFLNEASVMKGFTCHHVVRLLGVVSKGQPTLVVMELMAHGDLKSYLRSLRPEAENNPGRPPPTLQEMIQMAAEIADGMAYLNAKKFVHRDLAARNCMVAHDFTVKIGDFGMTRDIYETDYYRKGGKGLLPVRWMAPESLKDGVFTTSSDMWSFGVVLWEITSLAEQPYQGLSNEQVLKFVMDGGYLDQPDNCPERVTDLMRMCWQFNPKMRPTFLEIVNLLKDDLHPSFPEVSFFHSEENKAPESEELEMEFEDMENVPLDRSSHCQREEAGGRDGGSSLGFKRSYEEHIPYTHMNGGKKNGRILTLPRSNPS
Chain of Receptor tyrosine-protein kinase erbB-4 (Q15303 whole entry, the tested form may be a part): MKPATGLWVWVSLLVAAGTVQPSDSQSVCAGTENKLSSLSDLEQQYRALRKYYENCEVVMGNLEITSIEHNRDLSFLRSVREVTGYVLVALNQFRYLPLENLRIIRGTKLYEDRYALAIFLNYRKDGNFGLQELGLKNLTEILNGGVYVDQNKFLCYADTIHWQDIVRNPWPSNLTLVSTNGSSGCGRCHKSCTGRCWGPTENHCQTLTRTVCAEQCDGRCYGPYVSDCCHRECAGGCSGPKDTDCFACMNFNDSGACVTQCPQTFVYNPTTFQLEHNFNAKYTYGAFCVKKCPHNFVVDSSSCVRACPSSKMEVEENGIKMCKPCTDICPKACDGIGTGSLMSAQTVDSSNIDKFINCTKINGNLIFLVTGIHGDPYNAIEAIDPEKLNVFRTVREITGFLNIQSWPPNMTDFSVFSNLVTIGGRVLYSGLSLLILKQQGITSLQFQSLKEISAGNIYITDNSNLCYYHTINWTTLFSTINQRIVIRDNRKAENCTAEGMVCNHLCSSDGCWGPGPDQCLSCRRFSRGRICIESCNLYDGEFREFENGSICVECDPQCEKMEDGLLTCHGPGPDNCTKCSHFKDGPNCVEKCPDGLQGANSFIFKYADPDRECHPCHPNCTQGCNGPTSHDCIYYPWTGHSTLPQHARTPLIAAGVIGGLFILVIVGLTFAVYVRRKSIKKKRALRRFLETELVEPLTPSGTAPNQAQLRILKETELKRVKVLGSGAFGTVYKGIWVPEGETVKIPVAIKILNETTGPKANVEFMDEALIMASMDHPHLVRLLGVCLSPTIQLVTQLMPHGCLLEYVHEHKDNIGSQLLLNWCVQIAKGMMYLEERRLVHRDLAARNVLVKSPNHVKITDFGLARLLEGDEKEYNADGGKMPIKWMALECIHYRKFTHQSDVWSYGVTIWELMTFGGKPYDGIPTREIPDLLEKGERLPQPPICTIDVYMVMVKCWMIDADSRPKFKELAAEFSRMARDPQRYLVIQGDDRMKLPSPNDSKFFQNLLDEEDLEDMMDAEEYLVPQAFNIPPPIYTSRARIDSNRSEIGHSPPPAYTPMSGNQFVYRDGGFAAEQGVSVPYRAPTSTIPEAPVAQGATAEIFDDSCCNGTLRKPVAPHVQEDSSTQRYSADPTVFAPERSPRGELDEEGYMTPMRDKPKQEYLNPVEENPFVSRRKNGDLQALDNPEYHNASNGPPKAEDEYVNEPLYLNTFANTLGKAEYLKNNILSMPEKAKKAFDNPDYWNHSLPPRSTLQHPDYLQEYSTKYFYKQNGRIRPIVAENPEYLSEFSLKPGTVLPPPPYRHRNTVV
Chain of Platelet-derived growth factor receptor alpha (P16234 whole entry): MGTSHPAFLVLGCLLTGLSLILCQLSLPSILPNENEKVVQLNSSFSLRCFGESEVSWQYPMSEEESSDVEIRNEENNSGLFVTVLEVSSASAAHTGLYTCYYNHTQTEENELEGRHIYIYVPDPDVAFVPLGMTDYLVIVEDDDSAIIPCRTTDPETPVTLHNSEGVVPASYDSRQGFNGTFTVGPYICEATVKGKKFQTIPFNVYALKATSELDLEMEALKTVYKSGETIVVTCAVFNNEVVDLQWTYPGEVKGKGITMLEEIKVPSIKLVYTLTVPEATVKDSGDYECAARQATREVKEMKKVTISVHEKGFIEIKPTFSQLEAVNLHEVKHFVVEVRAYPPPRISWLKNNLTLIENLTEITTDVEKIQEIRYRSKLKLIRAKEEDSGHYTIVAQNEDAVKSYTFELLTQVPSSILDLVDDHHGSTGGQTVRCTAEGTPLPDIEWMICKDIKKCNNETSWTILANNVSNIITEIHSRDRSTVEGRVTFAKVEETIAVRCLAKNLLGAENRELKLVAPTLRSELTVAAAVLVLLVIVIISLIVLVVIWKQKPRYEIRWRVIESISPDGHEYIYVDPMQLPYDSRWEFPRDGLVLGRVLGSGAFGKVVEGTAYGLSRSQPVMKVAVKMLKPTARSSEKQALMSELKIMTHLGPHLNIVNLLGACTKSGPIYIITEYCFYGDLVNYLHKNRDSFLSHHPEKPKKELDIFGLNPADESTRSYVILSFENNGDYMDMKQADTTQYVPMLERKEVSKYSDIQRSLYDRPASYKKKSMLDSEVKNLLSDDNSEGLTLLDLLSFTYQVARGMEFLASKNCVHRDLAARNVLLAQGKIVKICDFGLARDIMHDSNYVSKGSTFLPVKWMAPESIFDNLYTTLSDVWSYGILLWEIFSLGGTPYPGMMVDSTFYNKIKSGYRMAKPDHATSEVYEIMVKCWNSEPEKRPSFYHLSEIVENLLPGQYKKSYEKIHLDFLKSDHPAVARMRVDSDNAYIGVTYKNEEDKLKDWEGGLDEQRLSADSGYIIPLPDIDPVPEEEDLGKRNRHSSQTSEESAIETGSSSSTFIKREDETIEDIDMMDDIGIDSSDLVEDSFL

IC50 (A-375) [µM]	IC50 (MCF7 [1]) [µM]	IC50 (A549 [2]) [µM]	Compound	also measured
> 100	> 100	> 100	O=[N+]([O-])c1ccc(-c2csc(N3N=C(c4ccc(N5CCCCC5)cc4)CC3c3ccc(Cl)cc3)n2)cc1 (stereo not drawn)	–
> 100	> 100	> 100	CS(=O)(=O)c1ccc(-c2csc(N3N=C(c4ccc(N5CCCCC5)cc4)CC3c3ccc(Cl)cc3)n2)cc1 (stereo not drawn)	–
64.2	23.7	42	FC(F)(F)c1ccc(-c2csc(N3N=C(c4ccc(N5CCCCC5)cc4)CC3c3ccc(Cl)cc3)n2)cc1 (stereo not drawn)	–
71.4	23.1	70.2	Fc1ccc(-c2csc(N3N=C(c4ccc(N5CCCCC5)cc4)CC3c3ccc(Cl)cc3)n2)cc1 (stereo not drawn)	–
> 100	> 100	46.4	Clc1ccc(-c2csc(N3N=C(c4ccc(N5CCCCC5)cc4)CC3c3ccc(Cl)cc3)n2)cc1 (stereo not drawn)	–
38.7	9.76	11.2	N#Cc1ccc(-c2csc(N3N=C(c4ccc(N5CCCCC5)cc4)CC3c3ccc(Cl)cc3)n2)cc1 (stereo not drawn)	IC50 [3]: 25.6 µM; IC50 [4]: > 30 µM; selectivity ratio [5]: > 10; IC50 (Insulin receptor): > 30 µM; IC50 [6]: > 30 µM; IC50 [7]: 29 µM; IC50 [8]: > 30 µM; Activity (A549 [9]): 15%; IC50 [16]: 4.71 µM; Activity (A549 [10]): 8%; Activity (MCF7 [11]): 27%; IC50 (PBMC): 299 µM; Activity (MCF7 [12]): 10%; Activity (A549 [13]): 77%; IC50 (Jurkat): 29.5 µM; IC50 [14]: > 30 µM; Activity (MCF7 [15]): 63%
> 100	> 100	39.7	Clc1ccc(C2CC(c3ccc(N4CCCCC4)cc3)=NN2c2nc(-c3ccc(Br)cc3)cs2)cc1 (stereo not drawn)	–
> 100	> 100	> 100	COc1ccc(-c2csc(N3N=C(c4ccc(N5CCOCC5)cc4)CC3c3ccc(Cl)cc3)n2)cc1 (stereo not drawn)	–
> 100	> 100	> 100	Cc1ccc(-c2csc(N3N=C(c4ccc(N5CCCCC5)cc4)CC3c3ccc(Cl)cc3)n2)cc1 (stereo not drawn)	–
> 100	> 100	> 100	COc1ccc(-c2csc(N3N=C(c4ccc(N5CCCCC5)cc4)CC3c3ccc(Cl)cc3)n2)cc1 (stereo not drawn)	–

Continued, molecule first:

Compound	IC50 (A-375) [µM]	IC50 (MCF7 [1]) [µM]	IC50 (A549 [2]) [µM]	also measured
Clc1ccc(C2CC(c3ccc(N4CCOCC4)cc3)=NN2c2nc(-c3ccc4ccccc4c3)cs2)cc1 (stereo not drawn)	> 100	> 100	> 100	–
FC(F)(F)c1ccc(-c2csc(N3N=C(c4ccc(N5CCOCC5)cc4)CC3c3ccc(Cl)cc3)n2)cc1 (stereo not drawn)	> 100	> 100	39.3	–
Clc1ccc(C2CC(c3ccc(N4CCOCC4)cc3)=NN2c2nc(-c3ccccc3)cs2)cc1 (stereo not drawn)	> 100	52.1	76.5	–
O=[N+]([O-])c1ccc(-c2csc(N3N=C(c4ccc(N5CCOCC5)cc4)CC3c3ccc(Cl)cc3)n2)cc1 (stereo not drawn)	> 100	> 100	> 100	–
N#Cc1ccc(-c2csc(N3N=C(c4ccc(N5CCOCC5)cc4)CC3c3ccc(Cl)cc3)n2)cc1 (stereo not drawn)	53.5	8.05	10.8	IC50 [3]: 10.8 µM; IC50 [4]: 10.3 µM; selectivity ratio [5]: > 10; IC50 (Insulin receptor): > 30 µM; IC50 [6]: > 30 µM; IC50 [7]: 4.68 µM; IC50 [8]: 2.28 µM; Activity (A549 [9]): 19%; Activity (A549 [10]): 13%; Activity (MCF7 [11]): 32%; IC50 (PBMC): 299 µM; Activity (MCF7 [12]): 27%; Activity (A549 [13]): 68%; IC50 (Jurkat): 41 µM; IC50 [14]: > 30 µM; Activity (MCF7 [15]): 51%
Clc1ccc(C2CC(c3ccc(N4CCOCC4)cc3)=NN2c2nc(-c3ccc(Br)cc3)cs2)cc1 (stereo not drawn)	> 100	70.6	94.3	–
Clc1ccc(C2CC(c3ccc(N4CCCCC4)cc3)=NN2c2nc(-c3ccc4ccccc4c3)cs2)cc1 (stereo not drawn)	> 100	> 100	> 100	–
CS(=O)(=O)c1ccc(-c2csc(N3N=C(c4ccc(N5CCOCC5)cc4)CC3c3ccc(Cl)cc3)n2)cc1 (stereo not drawn)	> 100	67.2	10.7	–
C#Cc1cccc(Nc2ncnc3cc(OCCOC)c(OCCOC)cc23)c1 [ERLOTINIB]	27.3	8.24	22.4	Activity (A549 [9]): 19%; Activity (A549 [10]): 9%; Activity (MCF7 [11]): 21%; IC50 (PBMC): 39.3 µM; Activity (MCF7 [12]): 13%; Activity (A549 [13]): 72%; IC50 (Jurkat): 12.1 µM; Activity (MCF7 [15]): 66%
Clc1ccc(-c2csc(N3N=C(c4ccc(N5CCOCC5)cc4)CC3c3ccc(Cl)cc3)n2)cc1 (stereo not drawn)	75.9	14.9	19	–
Clc1ccc(C2CC(c3ccc(N4CCCCC4)cc3)=NN2c2nc(-c3ccccc3)cs2)cc1 (stereo not drawn)	65.8	28.4	64.2	–
Fc1ccc(-c2csc(N3N=C(c4ccc(N5CCOCC5)cc4)CC3c3ccc(Cl)cc3)n2)cc1 (stereo not drawn)	84.4	9.59	8.95	IC50 [3]: 10.5 µM; IC50 [4]: 3.28 µM; selectivity ratio [5]: > 10; IC50 (Insulin receptor): 9.79 µM; IC50 [6]: > 30 µM; IC50 [7]: 1.5 µM; IC50 [8]: 6.96 µM; Activity (A549 [9]): 23%; IC50 [16]: 23.3 µM; Activity (A549 [10]): 12%; Activity (MCF7 [11]): 14%; IC50 (PBMC): > 300 µM; Activity (MCF7 [12]): 8%; Activity (A549 [13]): 65%; IC50 (Jurkat): 23.4 µM; IC50 [14]: > 30 µM; Activity (MCF7 [15]): 78%
NC(=S)N1N=C(c2ccc(N3CCOCC3)cc2)CC1c1ccc(Cl)cc1 (stereo not drawn)	> 100	37.4	> 100	–
Cc1ccc(-c2csc(N3N=C(c4ccc(N5CCOCC5)cc4)CC3c3ccc(Cl)cc3)n2)cc1 (stereo not drawn)	> 100	> 100	> 100	–
NC(=S)N1N=C(c2ccc(N3CCCCC3)cc2)CC1c1ccc(Cl)cc1 (stereo not drawn)	> 100	22.3	33.8	–

From ChEMBL document CHEMBL4406839, “Design, synthesis and biological evaluation of a new series of thiazolyl-pyrazolines as dual EGFR and HER2 inhibitors” (Eur J Med Chem, 2019)
